# Measured values from patent US20220119375A1, “3-ARYLOXY-3-ARYL-PROPYLAMINE COMPOUND AND USES THEREOF” (Zhangzhou Pien Tze Huang Pharmaceutical Co., Ltd., priority 2018, published 2022).
# Tested on: C57BL/6 mice, ICS model
# Experiment: mice ICS model (fibromyalgia), mechanical allodynia test
# Assay type: in vivo, mouse
# Conditions: 10 mg/kg oral
# Method: After completely dissolved, the duloxetine was administered orally. The volume of administration was 5 ml/kg.
# 10 mg/kg compound Ic-1:17 mg of compound Ic-1 was weighed, dissolved in saline and diluted to 8.5 mL. After completely dissolved, the compound Ic-1 was administered orally. The volume of administration was 5 ml/kg.
# Male C57BL/6 mice weighed 18-22 g were selected at the beginning of experiment. Each cage had 4 mice which were allowed to feed and drink water freely. Each experimental group had 12 mice, and the experimental mice were labeled by tail labeling method.
# Day 0: At 4:30 pm, the mice were put in a plexiglass box with stainless steel mesh, and then the plexiglass box was put in cold environment (4±2° C.) overnight. The mice were allowed to feed freely and drink, and agar was used to replace water.
# Day 1: At 10:00 am, the mice were delivered to room temperature (24±2° C.) environment for 30 min, and then the mice were delivered to cold environment for 30 min. The above steps were repeated until 4:[…], and the mice were put in cold environment overnight.
# Day 2: the operation on day 1 was repeated.
# Day 3: the mice were taken out from cold environment at 10:00 am.
# The compounds were administered orally according to the schedule of experiment, and the dosage was 10 mg/kg.
# On the fourth day after modeling, the pre-administration mechanical allodynia test was performed on the animals. Animals with PWT value greater than 0.5 g were excluded and were not used for experiments. On the fifth day after modeling, the animals were tested for mechanical allodynia at 0.5 h, 1 h, and 2 h after the administration of compounds. […]
# During the test, rapid withdrawal of animal claw was recorded as pain response. When the test fiber was removed from animal skin, the withdrawal of animal claw was also recorded as pain response. If animal moved, the pain response was not recorded, and the test was repeated. […] The maximum strength of tested fiber was 4.17 (1.4 g). • The test results were recorded in Table 4 below, wherein pain response was recorded as X and no pain response was recorded as O. […]
smiles,measurement,setting,value
"CNCC[C@H](Oc1cccc2ccccc12)c1cccs1 [Duloxetine (S configuration), Duloxetine]",PWT (g) Mean ± SD,0.5 h after administration,0.416 ± 0.140 g
same,PWT (g) Mean ± SD,1 h after administration,0.648 ± 0.155 g
same,PWT (g) Mean ± SD,2 h after administration,0.530 ± 0.235 g
